For the test, the target named is myoglobin (carbonmonoxy myoglobin, MbCO) (Equus caballus, UniProt P68082). Description: 1H NMR titration. It counts as binding.
Chain of myoglobin (carbonmonoxy myoglobin, MbCO) (P68082 2-154): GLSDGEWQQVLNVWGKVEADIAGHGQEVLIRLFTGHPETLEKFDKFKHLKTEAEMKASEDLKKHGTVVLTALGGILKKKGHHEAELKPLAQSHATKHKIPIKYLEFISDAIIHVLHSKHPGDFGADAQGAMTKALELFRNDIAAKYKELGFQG

One may read the Kd as a measure of binding affinity in units of concentration. `CCCCCCCCCCCCCCCC(=O)O` [PA, palmitate] came in with a Kd of 39 to 48 µM.
